# Tested on: Ba/F3-CDM cells (Ba/F3 transfected with CD8-MerTK)
# Assay: In cell MER kinase assay, Ba/F3-CDM cell proliferation without IL-3 (Celltiter-Glo, GI50)
# Format: cell-based, murine
# Settings: 48 hours, read-out: Cell growth inhibition (GI50)
# Procedure: In Cell MER Kinase Assay Using BaF3 Cellular System
# To establish an in cell kinase assay for MerTK kinase, the IL-3 dependent Ba/F3 cells of murine lymphoid origin was transfected with CD8-MerTK. […] For a routine cellular assay, Ba/F3-CDM cells were seeded at 2,000 cells per well in 384-well cell culture plate containing DMEM/10% FBS culture media and incubated for 24 hours before addition of compounds pre-diluted in culture media. Following compound treatment, cells were further incubated for 48 hours and the proliferation was measured. To discriminate a Ba/F3 growth inhibition by a specific inhibition of MerTK kinase following compound treatment vs growth inhibition due to a non-specific unintended cytotoxicity of compounds, we routinely carried out control sets of Ba/F3 cells in parallel that grown in IL3-supplemented growth media. In the presence of IL-3, the proliferation of Ba/F3 is no longer dependent on the MerTK activity. Cell growth and proliferation was measured with Celltiter-Glo™ system (Promega, USA) according to the manufacturer's instruction. The half-maximal growth inhibitory concentration (GI50) value was calculated with Prism6.0 software (GraphPad, USA).
row,GI50,Structure (SMILES)
1,< 100 nM,"CC(c1ccc(-c2ccc(CO[C@H]3CCC[C@@H]3NC(=O)c3cc(-c4cnn(C)c4)cnc3N)cc2)cc1)N1CCN(C)CC1 (stereo partly drawn) [Example 208, 2-amino-5-(1-methyl-1H-pyrazol-4-yl)-N-((1S,2S)-2-((4′-(1-(4-methylpiperazin-1-yl)ethyl)-[1,1′-biphenyl]-4-yl)methoxy)cyclopentyl)nicotinamide]"
2,< 100 nM,"CC(c1ccc(-c2ccc(CO[C@H]3CCC[C@@H]3NC(=O)c3cc(-c4cnn(C)c4)cnc3N)cc2)cc1)N1C[C@@H](C)N(C)[C@@H](C)C1 (stereo partly drawn) [Example 209, 2-amino-5-(1-methyl-1H-pyrazol-4-yl)-N-((1S,2S)-2-((4′-(1-((3S,5R)-3,4,5-trimethylpiperazin-1-yl)ethyl)-[1,1′-biphenyl]-4-yl)methoxy)-cyclopentyl)nicotinamide]"
3,< 100 nM,"CC(c1ccc(-c2ccc(CO[C@H]3CCC[C@@H]3NC(=O)c3cc(-c4cnn(C)c4)cnc3N)cc2)cc1)N1C[C@@H](C)N(CCO)[C@@H](C)C1 (stereo partly drawn) [Example 211, 2-amino-N-((1S,2S)-2-((4′-(1-((3S,5R)-4-(2-hydroxyethyl)-3,5-dimethylpiperazin-1-yl)ethyl)-[1,1′-biphenyl]-4-yl)methoxy)cyclopentyl)-5-(1-methyl-1H-pyrazol-4-yl)nicotinamide]"
4,> 1000 nM,"CC(c1c(F)cc(-c2ccc(CO[C@H]3CCC[C@@H]3NC(=O)c3cc(-c4cnn(C)c4)cnc3N)cc2)cc1F)N1CCN(CCO)CC1 (stereo partly drawn) [Example 212, 2-amino-N-((1S,2S)-2-((3′,5′-difluoro-4′-(1-(4-(2-hydroxyethyl)-piperazin-1-yl)ethyl)-[1,1′-biphenyl]-4-yl)methoxy)cyclopentyl)-5-(1-methyl-1H-pyrazol-4-yl)nicotinamide]"
5,< 100 nM,"C[C@H](c1ccc(-c2ccc(CO[C@H]3CCC[C@@H]3NC(=O)c3cc(-c4cnn(C)c4)cnc3N)cc2)cc1)N1CCN(C)CC1 [Example 214, 2-amino-5-(1-methyl-1H-pyrazol-4-yl)-N-((1S,2S)-2-((4′-((R)-1-(4-methylpiperazin-1-yl)ethyl)-[1,1′-biphenyl]-4-yl)methoxy)cyclopentyl)nicotinamide]"
6,< 100 nM,C[C@@H](c1ccc(-c2ccc(CO[C@H]3CCC[C@@H]3NC(=O)c3cc(-c4cnn(C)c4)cnc3N)cc2)cc1)N1CCN(C)CC1 [Example 215]
7,< 100 nM,"Cn1cc(-c2cnc(N)c(C(=O)N[C@H]3CCC[C@@H]3OCc3ccc(-c4ccc(C5(N6CCN(CCO)CC6)CC5)cc4)cc3)c2)cn1 [Example 220, 2-amino-N-((1S,2S)-2-((4′-(1-(4-(2-hydroxyethyl)piperazin-1-yl)cyclopropyl)-[1,1′-biphenyl]-4-yl)methoxy)cyclopentyl)-5-(1-methyl-1H-pyrazol-4-yl)nicotinamide]"
8,< 100 nM,"C[C@@H](c1ccc(-c2ccc(CO[C@H]3CCC[C@@H]3NC(=O)c3cc(-c4ccc(F)nc4)cnc3N)cc2)cc1)N1CCN(C)CC1 [Example 222, 6-amino-6′-fluoro-N-((1S,2S)-2-((4′-((S)-1-(4-methylpiperazin-1-yl)ethyl)-[1,1′-biphenyl]-4-yl)methoxy)cyclopentyl)-[3,3′-bipyridine]-5-carboxamide]"
9,< 100 nM,"C[C@@H](c1ccc(-c2ccc(CO[C@H]3CCC[C@@H]3NC(=O)c3cc(-c4ccc(F)nc4)cnc3N)cc2)cc1)N1CCN(CCO)CC1 [Example 226, 6-amino-6′-fluoro-N-((1S,2S)-2-((4′-((S)-1-(4-(2-hydroxyethyl)piperazin-1-yl)ethyl)-[1,1′-biphenyl]-4-yl)methoxy)cyclopentyl)-[3,3′-bipyridine]-5-carboxamide]"
10,< 100 nM,"C[C@H](c1ccc(-c2ccc(CO[C@H]3CCC[C@@H]3NC(=O)c3cc(-c4ccc(F)nc4)cnc3N)cc2)cc1)N1CCN(CCO)CC1 [Example 227, 6-amino-6′-fluoro-N-((1S,2S)-2-((4′-((R)-1-(4-(2-hydroxyethyl)-piperazin-1-yl)ethyl)-[1,1′-biphenyl]-4-yl)methoxy)cyclopentyl)-[3,3′-bipyridine]-5-carboxamide]"
11,< 100 nM,"CC(c1ccc(-c2ccc(CO[C@H]3CCC[C@@H]3NC(=O)c3cc(-c4cncc(F)c4)cnc3N)cc2)cc1)N1CCN(C)CC1 (stereo partly drawn) [Example 230, 6-amino-5′-fluoro-N-((1S,2S)-2-((4′-(1-(4-methylpiperazin-1-yl)ethyl)-[1,1′-biphenyl]-4-yl)methoxy)cyclopentyl)-[3,3′-bipyridine]-5-carboxamide]"
12,< 100 nM,"CC(c1ccc(-c2ccc(CO[C@H]3CCC[C@@H]3NC(=O)c3cc(-c4cncc(F)c4)cnc3N)cc2)cc1)N1CCN(CCO)CC1 (stereo partly drawn) [Example 236, 6-amino-5′-fluoro-N-((1S,2S)-2-((4′-(1-(4-(2-hydroxyethyl)-piperazin-1-yl)ethyl)-[1,1′-biphenyl]-4-yl)methoxy)cyclopentyl)-[3,3′-bipyridine]-5-carboxamide]"
13,< 100 nM,"CC(c1ccc(-c2ccc(CO[C@H]3CCC[C@@H]3NC(=O)c3cc(-c4ccc(F)nc4)cnc3N)cc2)cc1)N1CCN(CCO)CC1 (stereo partly drawn) [Example 237, 6-amino-6′-fluoro-N-((1S,2S)-2-((4′-(1-(4-(2-hydroxyethyl)-piperazin-1-yl)ethyl)-[1,1′-biphenyl]-4-yl)methoxy)cyclopentyl)-[3,3′-bipyridine]-5-carboxamide]"
14,< 100 nM,"CC(c1ccc(-c2ccc(CO[C@H]3CCC[C@@H]3NC(=O)c3cc(-c4cccnc4F)cnc3N)cc2)cc1)N1CCN(CCO)CC1 (stereo partly drawn) [Example 238, 6-amino-2′-fluoro-N-((1S,2S)-2-((4′-(1-(4-(2-hydroxyethyl)-piperazin-1-yl)ethyl)-[1,1′-biphenyl]-4-yl)methoxy)cyclopentyl)-[3,3′-bipyridine]-5-carboxamide]"
15,< 100 nM,"CN1CCC(Cc2ccc(-c3ccc(CO[C@H]4CCC[C@@H]4NC(=O)c4cc(-c5cnn(C)c5)cnc4N)cc3)cc2)CC1 [Example 239, 2-amino-5-(1-methyl-1H-pyrazol-4-yl)-N-((1S,2S)-2-((4′-((1-methylpiperidin-4-yl)methyl)-[1,1′-biphenyl]-4-yl)methoxy)cyclopentyl)nicotinamide]"
16,< 100 nM,"Cn1cc(-c2cnc(N)c(C(=O)N[C@H]3CCC[C@@H]3OCc3ccc(-c4ccc(CC5CCN(CCO)CC5)cc4)cc3)c2)cn1 [Example 240, 2-amino-N-((1S,2S)-2-((4′-((1-(2-hydroxyethyl)piperidin-4-yl)-methyl)-[1,1′-biphenyl]-4-yl)methoxy)cyclopentyl)-5-(1-methyl-1H-pyrazol-4-yl)-nicotinamide]"
17,< 100 nM,"Cn1cc(-c2cnc(N)c(C(=O)N[C@H]3CCC[C@@H]3OCc3ccc(-c4ccc(CC5CCN(CC(N)=O)CC5)cc4)cc3)c2)cn1 [Example 242, 2-amino-N-((1S,2S)-2-((4′-((1-(2-amino-2-oxoethyl)piperidin-4-yl)methyl)-[1,1′-biphenyl]-4-yl)methoxy)cyclopentyl)-5-(1-methyl-1H-pyrazol-4-yl)-nicotinamide]"
18,500 to 1000 nM,"CN(C)CCOc1ccc(-c2ccc(CO[C@H]3CCC[C@@H]3NC(=O)c3cc(-c4cnn(C)c4)cnc3N)cc2)cc1 [Example 245, 2-amino-N-((1S,2S)-2-((4′-(2-(dimethylamino)ethoxy)-[1,1′-biphenyl]-4-yl)methoxy)cyclopentyl)-5-(1-methyl-1H-pyrazol-4-yl)nicotinamide]"
19,> 1000 nM,"Cn1cc(-c2cnc(N)c(C(=O)N[C@H]3CCC[C@@H]3OCc3ccc(C#CCCO)cc3)c2)cn1 [Example 249, 2-amino-N-((1S,2S)-2-((4-(4-hydroxybut-1-yn-1-yl)benzyl)oxy)-cyclopentyl)-5-(1-methyl-1H-pyrazol-4-yl)nicotinamide]"
20,> 1000 nM,"Cn1cc(-c2cnc(N)c(C(=O)N[C@H]3CCC[C@@H]3OCc3ccc(C#CCCCCO)cc3)c2)cn1 [Example 251, 2-amino-N-((1S,2S)-2-((4-(6-hydroxyhex-1-yn-1-yl)benzyl)oxy)-cyclopentyl)-5-(1-methyl-1H-pyrazol-4-yl)nicotinamide]"
21,> 1000 nM,"Cc1ccc(CO[C@H]2CCC[C@@H]2NC(=O)c2cc(-c3ccc(CN4CCC(N5CCCC5)CC4)c(F)c3)cnc2N)cc1C [Example 325, 2-amino-N-((1S,2S)-2-((3,4-dimethylbenzyl)oxy)cyclopentyl)-5-(3-fluoro-4-((4-(pyrrolidin-1-yl)piperidin-1-yl)methyl)phenyl)nicotinamide]"
22,> 1000 nM,"CCc1cc(CO[C@H]2CCC[C@@H]2NC(=O)c2cc(-c3ccc(C(C)(C)N4CCN(CCO)CC4)cc3)cnc2N)ccc1C [Example 360, 2-amino-N-((1S,2S)-2-((3-ethyl-4-methylbenzyl)oxy)cyclopentyl)-5-(4-(2-(4-(2-hydroxyethyl)piperazin-1-yl)propan-2-yl)phenyl)nicotinamide]"
23,< 100 nM,CN1CCN(Cc2ccc(-c3ccc(CO[C@H]4CCC[C@@H]4NC(=O)c4cc(-c5ccc(F)c(F)c5)cnc4N)cc3)cc2)CC1 [Example 364]
24,< 100 nM,"CN1CCC(n2cc(-c3cnc(N)c(C(=O)N[C@H]4CCC[C@@H]4OCc4ccc(-c5ccc(CN6CCN(C)CC6)cc5)cc4)c3)cn2)CC1 [Example 366, 2-amino-N-((1S,2S)-2-((4′-((4-methylpiperazin-1-yl)methyl)-[1,1′-biphenyl]-4-yl)methox)cyclopentyl)-5-(1-(1-methylpiperidin-4-yl)-1H-pyrazol-4-yl)nicotinamide]"
25,< 100 nM,"CN1CCN(Cc2ccc(-c3ccc(CO[C@H]4CCC[C@@H]4NC(=O)c4cc(-c5ccc(N6CCN(C)CC6)cc5)cnc4N)cc3)cc2)CC1 [Example 367, 2-amino-N-((1S,2S)-2-((4′-((4-methylpiperazin-1-yl)methyl)-[1,1′-biphenyl]-4-yl)methoxy)cyclopentyl)-5-(4-(4-methylpiperazin-1-yl)phenyl)-nicotinamide]"
